Like-named read-outs stand apart in the source and are kept apart here.
Legend:
NSD2 [1-1365] = NSD2 [1-1365] (Homo sapiens (Human), UniProt O96028); test: LC-MS/MS-based NSD2 enzymatic assay (SAH production); type: biochemical; settings: read-out: NSD2 IC50
Description: LC-MS/MS-Based NSD2 Enzymatic Assay
This assay employed LC-MS/MS technology to monitor the SAH production from the NSD2 enzymatic reaction. The enzymatic reaction was performed in white proxiplate plus 384-well microplate (Perkin Elmer). The reaction mixture (10 μL) were composed of 8 nM NSD2 [1-1365], […] SAM (USB, 10601) and 400 nM nucleosome (purified from mouse liver) in reaction buffer (20 mM Tris-HCl, pH at 8.0, 0.01% Tween 20, 10 mM MgCl2, 50 mM NaCl, 1 mM DTT, 1 mM TCEP (pH7.5)). After 90 min incubation at room temperature, 3 μL quenching solution containing 2.5% TFA with 320 nM d4-SAH was added to stop the reaction.
For the inhibition assay, compound solutions were transferred into the wells by Mosquito™ (TTP LabTech). The inhibition assays were carried out by preincubating various concentrations of the inhibitor with 5 uL reaction mixture containing 16 nM NSD2 [1-1365] and 2 uM SAM (USB, 10601) in reaction buffer. After 20 min preincubation, 5 uL solution containing 800 nM nucleosome (purified from mouse liver) in reaction buffer was added to initiate the reaction. The reaction was stopped by 3 μL quenching solution containing 2.5% TFA with 320 nM d4-SAH after 90 min.
The SAH production from the enzymatic assays were monitored by LC-MS/MS on an API 4000 triple quadrupole mass spec with Turbolon Spray (Applied Biosystem) coupled with Prominenece UFLC(Shimazu). Liquid chromatography was performed on a Chromolith FastGradient HPLC column (RP-18e, 25-2 mm, from Merck) at a flow rate of 0.8 ml/min. The column was connected directly to the turbo ion electrospray operating in the positive-ion mode. Mobile phase A is 0.1% FA and 2% methanol in water and mobile phase B is 0.1% FA in ACN. Injection volume was 3 μl and the autosampler was kept at 4 degree. SAH and d4-SAH were simultaneously monitored. Data were acquired and processed by Analyst software.
To quantify the formed SAH, d4-SAH was added as internal standard (IS). A series of SAH (Sigma, A9384) solution at varying concentration (1-500 nM in reaction buffer) was mixed with quenching solution mentioned above. Then LC-MS/MS was carried out on API 4000 LC/MS/MS system to detect both SAH and d4-SAH. The plot of SAH peak area/IS peak area vs SAH concentration was used to generate the normalization factor of SAH. The SAH production from real enzymatic reaction was derived from the standard curve of SAH. The down-limit of our system for the detection of SAH is around 1-2 nM, and the linear range can reach up to 500 nM.

[1] = tested on: cellular H3K36me2 level in multiple myeloma cell line KMS11 (t(4;14)+); test: H3K36me2 cellular ELISA assay in KMS11-Par line; type: cell-based; settings: Homo sapiens, KMS-11, ELISA, read-out: H3K36me2 ELISA in KMS11-Par
Description: H3K36Me2 Cellular ELISA Assay in KMS11-Par Line
An ELISA (enzyme-linked immunosorbent assay) based assay was used to test the ability of candidate compound to reduce cellular H3K36me2 level in multiple myeloma cell line KMS11 (t(4;14)+). KMS11 (Horizon Discovery Ltd.) cells are maintained in RPM11640 media with 12.5% FBS and 50 U/ml Penicillin-Streptomycin. For assay compound treatment, single cell suspension was prepared in Opti-MEM supplemented with B-27 and N2 supplement (Invitrogen 11058-021, 17504-044, 17502-048) for ELISA and in maintenance media for cellTiter Glo (CTG) viability assay. One day prior to cell treatment, 1,250 KMS11 cells were seeded into 384-well Greiner CellStar TC plate (Greiner #781086) at the final volume of 30 μL/well.
Cells were treated with tested compounds at the desired concentration for 72 hours. Crude histone lysate was extracted by 0.4M HCl following neutralization by 0.5M Sodium phosphate, dibasic (Na2HPO4), pH ˜12.5. Equal amount of histone lysate was loaded to Corning 384-well high biding plate (Corning #3577, black) for H3K36m2 and to Thermo 384-well high binding Nunc plate (Thermo #460372, white) for total H3.
Histone bound plates were washed and blocked with 5% BSA. […] The abundance of H3K36me2 and total H3 was measured by Chemiluminesce on a plate reader. Cell viability was monitored on a parallel seeded plate with CellTiter-Glo reagent (Promega #G7573).

[2] = NSD2 biochemical activity, class symbols

Chain of NSD2 [1-1365] (O96028 whole entry): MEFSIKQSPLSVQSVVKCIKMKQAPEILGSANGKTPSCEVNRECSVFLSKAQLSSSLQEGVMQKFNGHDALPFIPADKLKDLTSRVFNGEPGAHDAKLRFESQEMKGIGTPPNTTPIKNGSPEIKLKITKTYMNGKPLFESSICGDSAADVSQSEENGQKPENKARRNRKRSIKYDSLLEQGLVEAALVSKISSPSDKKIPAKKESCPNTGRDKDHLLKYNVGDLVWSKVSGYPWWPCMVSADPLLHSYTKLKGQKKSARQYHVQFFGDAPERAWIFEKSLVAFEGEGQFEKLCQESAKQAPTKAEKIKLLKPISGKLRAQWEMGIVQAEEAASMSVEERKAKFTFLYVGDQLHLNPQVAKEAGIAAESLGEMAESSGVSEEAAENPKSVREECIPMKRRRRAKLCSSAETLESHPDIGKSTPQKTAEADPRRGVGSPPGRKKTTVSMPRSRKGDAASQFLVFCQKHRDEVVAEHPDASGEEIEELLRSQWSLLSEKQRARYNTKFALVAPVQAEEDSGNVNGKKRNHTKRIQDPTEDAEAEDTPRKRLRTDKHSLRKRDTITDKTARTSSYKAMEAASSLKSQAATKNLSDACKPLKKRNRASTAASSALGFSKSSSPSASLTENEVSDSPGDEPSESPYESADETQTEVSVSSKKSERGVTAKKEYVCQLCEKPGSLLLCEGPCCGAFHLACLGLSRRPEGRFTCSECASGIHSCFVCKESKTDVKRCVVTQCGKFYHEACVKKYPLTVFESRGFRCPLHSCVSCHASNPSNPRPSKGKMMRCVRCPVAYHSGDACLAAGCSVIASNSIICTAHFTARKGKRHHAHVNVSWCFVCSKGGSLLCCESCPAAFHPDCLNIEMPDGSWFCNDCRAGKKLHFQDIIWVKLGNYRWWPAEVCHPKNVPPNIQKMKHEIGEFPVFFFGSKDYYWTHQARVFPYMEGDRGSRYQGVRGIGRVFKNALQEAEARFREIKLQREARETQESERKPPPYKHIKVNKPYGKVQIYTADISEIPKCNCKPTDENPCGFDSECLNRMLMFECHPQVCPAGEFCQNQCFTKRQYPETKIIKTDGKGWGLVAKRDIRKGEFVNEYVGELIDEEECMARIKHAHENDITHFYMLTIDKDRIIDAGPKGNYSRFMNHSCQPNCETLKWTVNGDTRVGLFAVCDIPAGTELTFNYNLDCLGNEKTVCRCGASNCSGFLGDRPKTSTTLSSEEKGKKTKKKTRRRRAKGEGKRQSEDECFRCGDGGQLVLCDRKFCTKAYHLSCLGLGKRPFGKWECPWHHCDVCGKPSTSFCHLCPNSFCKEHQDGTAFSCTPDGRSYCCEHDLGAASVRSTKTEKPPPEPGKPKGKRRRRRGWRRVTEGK

IC50 (NSD2 [1-1365]) [nM]	IC50 (NSD2 [1-1365]; [2]) [nM]	Compound	also measured
1 to 10	–	Cn1cc([C@@]2(N)CCCN(c3cnc(-c4ccc(F)c(F)c4)cc3Cn3cnc4c(N)ncnc43)C2)cn1 [Example 269, (S)-9-((5-(3-amino-3-(1-methyl-1H-pyrazol-4-yl)piperidin-1-yl)-2-(3,4-difluorophenyl)pyridin-4-yl)methyl)-9H-purin-6-amine]	IC50 ([1]; KMS11-Par line, 72 hours): 5680 nM
> 1000	–	Nc1ncnc2c1ncn2Cc1cc(-c2ccc(F)c(F)c2)ncc1N1CCCC(N)(c2cccnc2)C1 (stereo not shown) [Example 271, 9-((5-(3-amino-3-(pyridin-3-yl)piperidin-1-yl)-2-(3,4-difluorophenyl)pyridin-4-yl)methyl)-9H-purin-6-amine]	IC50 ([1]; KMS11-Par line, 72 hours): 33300 nM
1 to 10	–	CC(C)n1ccc([C@@]2(N)CCCN(c3cnc(-c4ccc(F)cc4)cc3Cn3cnc4c(N)ncnc43)C2)n1 [Example 274, (R)-9-((5-(3-amino-3-(1-isopropyl-1H-pyrazol-3-yl)piperidin-1-yl)-2-(4-fluorophenyl)pyridin-4-yl)methyl)-9H-purin-6-amine]	IC50 ([1]; KMS11-Par line, 72 hours): 5540 nM
–	10 to 1000	C=CC(=O)Nc1ccc(-c2cc(Cn3cnc4c(N)ncnc43)c(N3CCCC(N)(CC(F)F)C3)cn2)cc1 (stereo not shown) [Example 76, N-(4-(5-(3-amino-3-(2,2-difluoroethyl)piperidin-1-yl)-4-((6-amino-9H-purin-9-yl)methyl)pyridin-2-yl)phenyl)acrylamide]	IC50 ([1]; KMS11-Par line (t(4;14)+), 72 hours treatment): 2120 nM
1 to 10	–	Nc1nccc2c1ncn2Cc1cc(-c2ccc(F)cc2)ncc1N1CCCC(N)(c2ccn(C3CC3)n2)C1 (stereo not shown) [Example 280, 1-((5-(3-amino-3-(1-cyclopropyl-1H-pyrazol-3-yl)piperidin-1-yl)-2-(4-fluorophenyl)pyridin-4-yl)methyl)-1H-imidazo[4,5-c]pyridin-4-amine]	IC50 ([1]; KMS11-Par line, 72 hours): 1490 nM
1 to 10	–	Nc1ncnc2c1ncn2Cc1cc(-c2ccc(F)cc2)ncc1N1CCCC(N)(c2cccc(Cl)n2)C1 (stereo not shown) [Example 205, 9-((5-(3-amino-3-(6-chloropyridin-2-yl)piperidin-1-yl)-2-(4-fluorophenyl)pyridin-4-yl)methyl)-9H-purin-6-amine]	IC50 ([1]; KMS11-Par line, 72 hours): 632 nM
1 to 10	–	Nc1ncnc2c1ncn2Cc1cc(-c2ccc(F)cc2)ncc1N1CCC[C@](N)(c2cccc(C(F)F)n2)C1 [Example 203, (R)-9-((5-(3-amino-3-(6-(difluoromethyl)pyridin-2-yl)piperidin-1-yl)-2-(4-fluorophenyl)pyridin-4-yl)methyl)-9H-purin-6-amine]	IC50 ([1]; KMS11-Par line, 72 hours): 389 nM
–	> 1000	Nc1ncnc2c1ncn2Cc1cc(-c2ccc(F)c(F)c2)ncc1N1CCCC(N)(C(=O)C2CCOC2)C1 (stereo not shown) [Example 111, (3-amino-1-(4-((6-amino-9H-purin-9-yl)methyl)-6-(3,4-difluorophenyl)pyridin-3-yl)piperidin-3-yl)(tetrahydrofuran-3-yl)methanone]	–
> 1000	–	Nc1ncnc2c1ncn2Cc1cc(-c2ccc(F)c(F)c2)ncc1N1CCC[C@@H](N)[C@H]1[C@@H](O)C(F)(F)F [Example 316, (R)-1-((2S,3R)-3-amino-1-(4-((6-amino-9H-purin-9-yl)methyl)-6-(3,4-difluorophenyl)pyridin-3-yl)piperidin-2-yl)-2,2,2-trifluoroethan-1-ol]	–
–	> 1000	N#CCC1(N)CCCN(c2cnc(-c3ccc(F)c(F)c3)cc2Cn2cnc3c(N)ncnc32)C1 (stereo not shown) [Example 77, 2-(3-amino-1-(4-((6-amino-9H-purin-9-yl)methyl)-6-(3,4-difluorophenyl)pyridin-3-yl)piperidin-3-yl)acetonitrile]	–
10 to 1000	–	Nc1ncnc2c1ncn2Cc1cc(-c2ccc(F)cc2)ncc1N1CCCC(N)(c2ccc(F)cn2)C1 (stereo not shown) [Example 189, 9-((5-(3-amino-3-(5-fluoropyridin-2-yl)piperidin-1-yl)-2-(4-fluorophenyl)pyridin-4-yl)methyl)-9H-purin-6-amine]	–
–	1 to 10	COC[C@@]1(N)CCCN(c2cnc(-c3ccc(F)c(Cl)c3)cc2Cn2cnc3c(N)ncnc32)C1 [Example 28, (R)-9-((5-(3-amino-3-(methoxymethyl)piperidin-1-yl)-2-(3-chloro-4-fluorophenyl)pyridin-4-yl)methyl)-9H-purin-6-amine]	–
10 to 1000	–	Nc1ncnc2c1ncn2Cc1cc(-c2ccc(F)c(F)c2)ncc1N1CCC[C@@H](N)[C@H]1CO [Example 312, ((2S,3R)-3-amino-1-(4-((6-amino-9H-purin-9-yl)methyl)-6-(3,4-difluorophenyl)pyridin-3-yl)piperidin-2-yl)methanol]	–
> 1000	–	C[C@H]1CC[C@@H](N)CN1c1cnc(-c2ccc(F)c(F)c2)cc1Cn1cnc2c(N)ncnc21 [Example 310, 9-((5-((2S,5R)-5-amino-2-methylpiperidin-1-yl)-2-(3,4-difluorophenyl)pyridin-4-yl)methyl)-9H-purin-6-amine]	–
10 to 1000	–	Nc1ncnc2c1ncn2Cc1cc(-c2ccc(F)c(F)c2)ncc1N1CCC[C@]2(COC(=O)N2)C1 [Example 292, (R)-7-(4-((6-amino-9H-purin-9-yl)methyl)-6-(3,4-difluorophenyl)pyridin-3-yl)-3-oxa-1,7-diazaspiro[4.5]decan-2-one]	–
> 1000	–	CN(C)C(=O)[C@@H]1[C@H](N)CCCN1c1cnc(-c2ccc(F)c(F)c2)cc1Cn1cnc2c(N)ncnc21 [Example 317, (2S,3R)-3-amino-1-(4-((6-amino-9H-purin-9-yl)methyl)-6-(3,4-difluorophenyl)pyridin-3-yl)-N,N-dimethylpiperidine-2-carboxamide]	–
–	10 to 1000	Nc1ncnc2c1ncn2Cc1cc(-c2ccc(CNC(=O)CCl)cc2)ncc1N1CCCC(N)(CC(F)F)C1 (stereo not shown) [Example 75, N-(4-(5-(3-amino-3-(2,2-difluoroethyl)piperidin-1-yl)-4-((6-amino-9H-purin-9-yl)methyl)pyridin-2-yl)benzyl)-2-chloroacetamide]	–
–	10 to 1000	CN(C)C(=O)CC1(N)CCCN(c2cnc(-c3ccc(F)c(F)c3)cc2Cn2cnc3c(N)ncc(Cl)c32)C1 (stereo not shown) [Example 68, 2-(3-amino-1-(4-((4-amino-7-]	–
–	10 to 1000	CC1CCCN1C(=O)C1(N)CCCN(c2cnc(-c3ccc(F)c(F)c3)cc2Cn2cnc3c(N)ncnc32)C1 (stereo not shown) [Example 88, (3-amino-1-(4-((6-amino-9H-purin-9-yl)methyl)-6-(3,4-difluorophenyl)pyridin-3-yl)piperidin-3-yl)(2-methylpyrrolidin-1-yl)methanone]	–
1 to 10	–	Nc1ncnc2c1ncn2Cc1cc(-c2ccc(F)cc2)ncc1N1CCC[C@](N)(c2ccn(C(F)F)n2)C1 [Example 273, (R)-9-((5-(3-amino-3-(1-(difluoromethyl)-1H-pyrazol-3-yl)piperidin-1-yl)-2-(4-fluorophenyl)pyridin-4-yl)methyl)-9H-purin-6-amine]	–
–	1 to 10	Cc1cc(C(F)F)c(F)cc1-c1cc(Cn2cnc3c(N)ncnc32)c(N2CCC[C@](N)([C@@H](O)C(F)F)C2)cn1 [Example 129, (R)-1-((R)-3-amino-1-(4-((6-amino-9H-purin-9-yl)methyl)-6-(4-(difluoromethyl)-5-fluoro-2-methylphenyl)pyridin-3-yl)piperidin-3-yl)-2,2-difluoroethan-1-ol]	–

From patent publication US11420970B1 (NOVARTIS AG, priority 2019, dated 2022)
